Source: PMC3456924, “Single-dose pharmacokinetic and toxicity analysis of pyrrole–imidazole polyamides in mice” (Cancer Chemotherapy and Pharmacology, 2012)
“Also recorded” adds a separate entry of the source. Like-named read-outs stand apart in the source and are kept apart here. Each block holds one compound with its values, some of them ahead of it.

How the values were obtained:
[1] = Plasma pharmacokinetics after a single IV tail vein injection; format: in vivo, BALB/C mice; conditions: for half-life / Cmax / AUC(0-inf) / clearance: iv; for concentration at 24 h: 24 h after single IV, read-out: average plasma concentration 24 h postinjection
Protocol: Pyrrole–imidazole polyamide pharmacokinetic studies were performed in 10- to 12-week-old female BALB/C mice (Charles River). Polyamides were solubilized in PBS (1) or PBS/DMSO (2) and administered via intravenous (IV) tail vein injection at concentrations of 7.5 and 5 mg/kg, respectively. For each experiment, groups of 3 animals were euthanized at 0.083, 0.25, 0.5, 1, 2, 4, 8, and 24 h after injection. Animals designated for the 4, 8, and 24 h time points were housed in metabolic cages for collection of urine and feces as described below. All animals used in the pharmacokinetic experiments were performed under an approved protocol at the City of Hope.
Concentrations of polyamides 1 and 2 were analyzed by LC/MS/MS using a Waters Acquity UPLC system (Milford, MA, USA) interfaced with a Waters Quattro Premier XE Mass Spectrometer. HPLC separation was achieved using a Jupiter 4u Proteo 90A 150 × 2.0 mm column (Phenomenex, Torrance, CA, USA) proceeded by a Phenomenex C8 guard column (Torrance, CA, USA). The column temperature was maintained at 30 °C. The mobile phase consisted of A (0.05 % acetic acid in water) and B (0.05 % acetic acid in acetonitrile). The following gradient program was used: 8 % B (0–1 min, 0.3 ml/min), 16 % B (3 min, 0.3 ml/min), 58 % B (6 min, 0.3 ml/min), 90 % B (7 min, 0.3 ml/min), and 8 % B (7.3 min, 0.3 ml/min). The total run time was 11.5 min. The auto-injector temperature was maintained at 5 °C. The strong needle wash solution was 5 % formic acid in MeOH/ACN (2:8) for both compounds, and the weak needle wash solution was 30 % MeOH in water for compound 1 and 50 % ACN in water for compound 2. The electrospray ionization source of the mass spectrometer was operated in positive ion mode with a cone gas flow of 50 L/hr and a desolvation gas flow of 700 L/hr. The capillary voltage was set to 3.2 kV, and the cone and collision cell voltages were optimized to 32 and 27 V for 1 and the INS 3. Voltages were optimized to 31 and 20 V for 2 and the INS 4. The source temperature was 125 °C, and the desolvation temperature was 470 °C. A solvent delay program was used from 0 to 4.0 min and from 6.1 to 11.5 min to minimize the mobile phase to flow to the source. MassLynx version 4.1 software was used for data acquisition and processing.
Plasma and urine samples were prepared for LC/MS/MS analysis by mixing 30 μL of plasma with 20 μL of 50 % MeOH and 50 % aqueous 1 % HOAc. The mixture was vortexed and mixed with an additional 120 μL of 0.5 % HOAc in MeOH/ACN (4:6) and 20 μL of 6.0 μg/mL INS in MeOH/1 % aqueous HOAc (1:1). The mixture was vortexed again for 2 min and centrifuged at the highest setting for 4 min. Next, 20 μL of the supernatant was transferred to a new tube and mixed with 180 μL of 50 % MeOH/ACN (4:6) and 50 % aqueous 1 % HOAc.
Standard curves were prepared mixing untreated plasma with 20 μL of 50 % MeOH and 50 % aqueous 1 % HOAc prepared with various concentrations of 1 and 2. Internal standards were added as described above.
Plasma pharmacokinetic parameters were derived from polyamide concentration profiles using both non-compartmental and compartmental methods. Non-compartmental analysis was performed according to statistical moment theory and the rule of linear trapezoids, while compartmental analysis was performed in ADAPT II [24]. Pharmacokinetic parameters estimated from the non-compartmental analysis include the maximum concentration (C max), the terminal elimination half-life (t 1/2), the mean residence time (MRT), the area under the concentration curve (AUC0–24h), the AUC extrapolated to infinity (AUC0–∞), and the clearance (CL). Additional plasma pharmacokinetic parameters determined from the compartmental analysis include the alpha and beta half-lives (t 1/2) and the apparent volume of distribution (V d). Tissue pharmacokinetic parameters were determined non-compartmentally and included the C max and AUC0–24h. […]

[2] = tested on: 5′-WGWWCW-3′ sequence (androgen response element DNA); set-up: method as in PMID 18459783, PMID 22080545, PMID 17566103; conditions: cited from earlier work
Aqueous solubility = format: physicochemical; conditions: 2 requires a polar aprotic cosolvent like DMSO for administration
[3] = set-up: method as in PMID 19413319; conditions: previous ADMET study; cited from earlier work
[4] = female, BALB/C, mouse, plasma, compartmental analysis, single IV, 7.5 mg/kg (1), 5 mg/kg (2)
[5] = female, BALB/C, mouse, plasma, non-compartmental analysis, single IV, 7.5 mg/kg (1), 5 mg/kg (2)
[6] = female, BALB/C, mouse, plasma, 7.5 mg/kg (1), 5 mg/kg (2)
[7] = plasma, compartmental analysis, single IV, 7.5 mg/kg (1), 5 mg/kg (2)
[8] = plasma, non-compartmental analysis, single IV, 7.5 mg/kg (1), 5 mg/kg (2)

half-life ([1]; female, BALB/C, mouse, plasma, plasma, compartmental analysis, single IV, 7.5 mg/kg (1), 5 mg/kg (2), read-out: t 1/2 α (initial) (converted)): 0.5 h
half-life ([1]; female, BALB/C, mouse, plasma, plasma, compartmental analysis, single IV, 7.5 mg/kg (1), 5 mg/kg (2), read-out: t 1/2 β (terminal) (converted)): 4.6 h
half-life ([1]; female, BALB/C, mouse, plasma, plasma, non-compartmental analysis, single IV, 7.5 mg/kg (1), 5 mg/kg (2), read-out: Elimination t 1/2 (converted)): 5.2 h
Cmax ([1]; female, BALB/C, mouse, plasma, compartmental analysis (2-compartment model), single IV, 7.5 mg/kg (1), 5 mg/kg (2)): 43600 ng/mL
AUC(0-inf) [1, 4]: 67500 ng·h/mL
clearance [1, 4]: 0.035 mL/min
AUC(0-inf) [1, 5]: 77400 ng·h/mL
clearance [1, 5]: 0.03 mL/min
Cmax ([1]; female, BALB/C, mouse, plasma, non-compartmental analysis, single IV, 7.5 mg/kg (1), 5 mg/kg (2), mean ± S.D., n = 3): 49400 ± 11200 ng/mL
concentration at 24 h [1, 6]: 210 ± 100 ng/mL
Vd ([1]; female, BALB/C, mouse, plasma, compartmental analysis, single IV, 7.5 mg/kg (1), 5 mg/kg (2), read-out: V d): 0.0081 L
AUC(0-t) [1, 5]: 75800 ng·h/mL
MRT ([1]; female, BALB/C, mouse, plasma, non-compartmental analysis, single IV, 7.5 mg/kg (1), 5 mg/kg (2), read-out: MRT): 3.3 h
maximum plasma concentration relative to effective concentration for PSA mRNA downregulation in cell culture ([1]; plasma C max vs cell culture effective concentration): over 3 times
SMILES: CN(CCCNC(=O)c1cccc(C(=O)O)c1)CCCNC(=O)c1cc(NC(=O)c2cc(NC(=O)c3cc(NC(=O)c4nc(NC(=O)[C@H](N)CCNC(=O)c5cc(NC(=O)c6cc(NC(=O)c7cc(NC(=O)c8nccn8C)cn7C)cn6C)cn5C)cn4C)cn3C)cn2C)cn1C [Polyamide 1]

SMILES: CC(=O)N[C@@H](CNC(=O)c1cc(NC(=O)c2cc(NC(=O)c3cc(NC(=O)c4nccn4C)cn3C)cn2C)cn1C)CC(=O)Nc1cn(C)c(C(=O)Nc2cc(C(=O)Nc3cc(C(=O)Nc4cc(C(=O)NCCCN(C)CCCNC(=O)c5cccc(C(=O)O)c5)n(C)c4)n(C)c3)n(C)c2)n1 [Polyamide 2]
DNA-binding ability relative to polyamide 1 [2]: without significant changes to its DNA-binding ability
solubility in aqueous solutions (Aqueous solubility): less soluble than 1; also recorded: relatively poor aqueous solubility
concentration at 24 h [1, 6]: 490 ± 200 ng/mL
C max ([1]; plasma, compartmental analysis (2-compartment model), single IV, 7.5 mg/kg (1), 5 mg/kg (2)): 40200 ng/mL
AUC0–∞ [1, 7]: 144800 ng·h/mL
CL [1, 7]: 0.7 mL/h
Vd [1, 7]: 0.004 L
t 1/2 α (initial) [1, 7]: 6 min
t 1/2 β (terminal) [1, 7]: 4.2 h
AUC0–t [1, 8]: 173500 ng·h/mL
AUC0–∞ [1, 8]: 176500 ng·h/mL
CL [1, 8]: 0.6 mL/h
Elimination t 1/2 [1, 8]: 4.3 h
MRT [1, 8]: 4.9 h
C max ([1]; plasma, non-compartmental analysis, single IV, 7.5 mg/kg (1), 5 mg/kg (2), mean ± S.D., n = 3): 41300 ± 5900 ng/mL
liver microsomal degradation [3]: resistant to liver microsomal degradation
